Measurements as given in US12433670B2, “Systems and methods for treating cancer and/or augmenting organ function” (Autonomix Medical, Inc., priority 2013, dated 2025).

Key:
[1] = test system: Pancreatic carcinoma cells (Mia PaCa2)
Procedure: (§1) The following, non-limiting example, is directed to treatment of cancer (e.g., pancreatic cancer), internal pain or neural mediated hyperplasia in organs (e.g., benign prostatic hyperplasia). Pancreatic carcinoma cells (Mia PaCa2) were injected into the head of the pancreas of 10 athymic nude mice (subjects). A bolus of ethanol (50-75 uL) was administered to the celiac ganglion and surrounding nerves of five of the mice (i.e., the EtOH ablation group). The remaining five subjects constitute the untreated control group.
The mice were tracked for 7 weeks post procedure. Tumor growth rates in all subjects were monitored via bioluminescent imaging with an in vivo imaging system, i.e., IVIS Spectrum (Xenogen), twice weekly during the experiment.
(§2) The metastases per group were assessed during necropsy.

[2] = test system: Mia PaCa2 human pancreatic cancer cells
Procedure: The following non-limiting example is directed at the treatment of neurogenic pathways for tumor growth and metastasis of pancreatic ductal adenocarcinoma (PDAC). A control experiment was performed with 10 athymic nude mice. The 10 mice were surgically prepared under anesthesia, and the surgical site was cleaned with 75% ethanol solution. A dorsal incision was used to access the spleen, pancreas and associated arterial supply. Mia PaCa2 human pancreatic cancer cells were seeded into the pancreas of each mouse. In 5 of the mice, the celiac ganglion and surrounding nerves were ablated with ethanol. The surgical procedures were completed and the mice were returned to Plexiglass boxes for observation.
The animals were monitored for detectable sickness related behavior and tumor growth was monitored via in vivo bioluminescent imaging techniques (IVIS® imaging system). Animals were monitored for relative changes in the following criteria: detectable sickness-related behavior, hunching and postural changes, signs of tumor growth in the animals' back (visible lumps), increases in piloerection, changes in skin tone and character, and changes in voluntary movement levels and exploratory behavior.

[3] = 7 weeks; EtOH group vs control group
Procedure: as §1
The experiment was terminated at 7 weeks.
as §2

[4] = necropsy at 7 weeks, affected/total mice

**Q.** Which “median tumor size relative to the control group median tumor size” value ([1]; 3 weeks) does the source give for `CCO` [EtOH, ethanol] here?
**A.** less than 1%

**Q.** What about the “tumor growth rate compared with the control arm (FIG. 11a)” value ([1]; 3 weeks post procedure, median subject of each group, ethanol 50-75 uL) of the same compound?
**A.** substantially decreased

**Q.** And the “difference in bioluminescence between the median responders” value ([1]; 3 weeks post procedure, treatment arm vs control arm)?
**A.** ~100 ×

**Q.** What about the “mean tumor size relative to the control group” value ([1]; 3 weeks, 1-sided, alpha=0.05, n=5, p=0.11) of the same compound?
**A.** half

**Q.** What about the “Occurrence of metastases by group: Liver” value [1, 4] of the same compound?
**A.** 0/5

**Q.** What about the “Occurrence of metastases by group: Local invasion” value [1, 4] of the same compound?
**A.** 2/5

**Q.** And the “Occurrence of metastases by group: Stomach” value [1, 4]?
**A.** 0/5

**Q.** And the “Occurrence of metastases by group: Spleen” value ([1]; necropsy at 7 weeks, affected/total mice, nerves from pancreas to spleen not treated)?
**A.** 4/5

**Q.** And the “incidence of metastases versus the untreated control group” value ([1]; necropsy at 7 weeks, including non-responder sub-group)?
**A.** considerably lower

**Q.** And the “tumor mass versus subjects of the control group” value ([1]; subjects with ablated peri-pancreatic nerves, overall)?
**A.** less tumor mass

**Q.** What about the “skin tone and movement versus the control mice” value ([2]; 2 weeks post-surgery, celiac ganglion and surrounding nerves ablated with ethanol, n=5) of the same compound?
**A.** improved skin tone and movement

**Q.** What about the “average tumor size relative to the average tumor size in the control group (IVIS luciferase ROI imaging)” value ([2]; 3 weeks, experimental group vs control group) of the same compound?
**A.** 55%

**Q.** And the “overall size difference between subjects in the groups (FIG. 11c)” value [3]?
**A.** no overall size difference
